Test results published in US11638427B2, “Methods and compositions for altering secondary metabolites in plants” (Impello Biosciences, Inc, priority 2020, dated 2023).

System: Nectria pseudotrichia
Experiment: Mold growth on jasmonate-infused plates, mold 2 isolated from avocado
Type: cell-based
Conditions: various concentrations in plates
Method: MDJ (TCI, CAS No.: 24851-98-7) and CJ were infused into potato dextrose agar (PDA, VWR Cat No.: 90003-494) petri dishes (100×15 mm VWR, Cat No: 25384-094) at concentrations ranging from 1 mM, 4.25 mM, and 10 mM. Each treatment was prepared using a technical grade stock solution of pure chemical (CJ or MDJ) diluted with TWEEN®-20 (VWR, CAS No.: […]). Culturable oyster mushroom and seedling mold served to create fungal mycelial plugs using a sterile 1 mL pipette tip (Eppendorf, Cat No.: 022491458) held upside down. The tips were used to make circle excisions (i.e., fungal plugs) from a mycelial mat grown on PDA with no biochemical infusions. Fungal pugs were then transferred to PDA infused with varying concentrations of CJ or MDJ, and control plates (no CJ or MDJ infusion) to monitor fungal growth at room temperature over time.
Based on the above results in Cannabis spp., additional fungi from various crops was sampled and tested. Plates comprising various concentrations of MDJ or MJ were prepared as described above.

For `CCCCCC1C(=O)CCC1CC(=O)OC` (stereo not shown) [MDJ, methyl dihydrojasmonate], the “growth of mold isolated from avocado (mold 2)” value was “effective at preventing the growth”.
